In the supplement of paper PMC10307832:

Columns and labels:
Assay in all cases: relative viability (nuclei count vs DMSO), 5 days (fraction); higher = more cells survive
XMD14-99 + Pemetrexed = compound: CN1CCN(CC1)C2=CC(=C(C=C2)NC3=NC(=C(S3)C(=O)C4=C(C=CC=C4Cl)Cl)N)OC [XMD14-99] + Nc1nc2[nH]cc(CCc3ccc(C(=O)N[C@@H](CCC(=O)O)C(=O)O)cc3)c2c(=O)[nH]1 [Pemetrexed] (partner 0.2 µM)
In short: (§1)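 Relative viability equals treated-well nuclei counts divided by vehicle-well nuclei counts. Counts came from 4× images of lung cancer cell lines grown in 1536-well plates for 5 days after pin-tool dosing on the day after seeding. Dosing used one drug alone or a fixed anchor-drug dose plus five library-drug doses (not always all listed) in √10 steps, and values are medians of duplicate plates.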

AZD1208 + Vorinostat = compound: N[C@@H]1CCCN(c2c(/C=C3\SC(=O)NC3=O)cccc2-c2ccccc2)C1 [AZD1208] + O=C(CCCCCCC(=O)Nc1ccccc1)NO [Vorinostat] (partner 1 µM)
In short: as §1

XMD14-99 + Olaparib = compound: CN1CCN(CC1)C2=CC(=C(C=C2)NC3=NC(=C(S3)C(=O)C4=C(C=CC=C4Cl)Cl)N)OC [XMD14-99] + O=C(c1cc(Cc2n[nH]c(=O)c3ccccc23)ccc1F)N1CCN(C(=O)C2CC2)CC1 [Olaparib] (partner 8 µM)
In short: as §1

AZD1208 + Pictilisib = compound: N[C@@H]1CCCN(c2c(/C=C3\SC(=O)NC3=O)cccc2-c2ccccc2)C1 [AZD1208] + CS(=O)(=O)N1CCN(Cc2cc3nc(-c4cccc5[nH]ncc45)nc(N4CCOCC4)c3s2)CC1 [Pictilisib] (partner 1 µM)
In short: as §1

Row | Cell Line | relative viability (XMD14-99 + Pemetrexed; first compound 0.08 µM) | relative viability (XMD14-99 + Pemetrexed; first compound 0.8 µM) | relative viability (XMD14-99 + Pemetrexed; first compound 2.53 µM) | relative viability (XMD14-99 + Pemetrexed; first compound 8 µM) | relative viability (AZD1208 + Vorinostat; first compound 0.08 µM) | relative viability (AZD1208 + Vorinostat; first compound 0.253 µM) | relative viability (AZD1208 + Vorinostat; first compound 0.8 µM) | relative viability (AZD1208 + Vorinostat; first compound 2.53 µM) | relative viability (AZD1208 + Vorinostat; first compound 8 µM) | relative viability (XMD14-99 + Olaparib; first compound 0.08 µM) | relative viability (XMD14-99 + Olaparib; first compound 0.8 µM) | relative viability (XMD14-99 + Olaparib; first compound 2.53 µM) | relative viability (XMD14-99 + Olaparib; first compound 8 µM) | relative viability (AZD1208 + Pictilisib; first compound 0.08 µM) | relative viability (AZD1208 + Pictilisib; first compound 0.253 µM) | relative viability (AZD1208 + Pictilisib; first compound 0.8 µM) | relative viability (AZD1208 + Pictilisib; first compound 2.53 µM) | relative viability (AZD1208 + Pictilisib; first compound 8 µM)
1 | NCI-H2347 | 0.46 | 0.426 | 0.391 | 0.35 | 0.531 | 0.767 | 0.533 | 0.599 | 0.803 | 0.557 | 0.568 | 0.601 | 0.446 | 0.467 | 0.782 | 0.558 | 0.495 | 0.495
2 | NCI-H2405 | 1.02 | 1.13 | 1 | 0.654 | 1.13 | 1.04 | 0.965 | 1.01 | 0.932 | 0.839 | 0.918 | 0.758 | 0.723 | 0.394 | 0.397 | 0.333 | 0.373 | 0.385
3 | NCI-H3122 | 0.192 | 0.185 | 0.205 | 0.164 | 0.97 | 0.943 | 0.924 | 1.05 | 0.524 | 0.671 | 0.682 | 0.62 | 0.441 | 0.506 | 0.486 | 0.447 | 0.481 | 0.524
4 | PC-3 [JPC-3] | 1.28 | 1.13 | 1.1 | 0.635 | 1.13 | 0.746 | 0.857 | 0.909 | 0.926 | 1.09 | 1.1 | 1.16 | 0.733 | 0.788 | 0.762 | 0.672 | 0.659 | 0.684
5 | PC-14 | 0.148 | 0.138 | 0.115 | 0.131 | 0.674 | 0.78 | 0.719 | 0.687 | 0.604 | 0.276 | 0.248 | 0.164 | 0.0816 | 0.617 | 0.743 | 0.436 | 0.584 | 0.482
6 | RERF-LC-KJ | 0.469 | 0.506 | 0.452 | 0.449 | 0.646 | 0.668 | 0.7 | 0.658 | 0.598 | 0.986 | 0.856 | 0.882 | 0.648 | 0.434 | 0.526 | 0.464 | 0.438 | 0.368
7 | SK-LU-1 | 0.98 | 1.02 | 0.942 | 0.684 | 0.776 | 0.785 | 0.73 | 0.783 | 0.736 | 0.423 | 0.459 | 0.374 | 0.34 | 0.459 | 0.607 | 0.532 | 0.567 | 0.431
8 | SK-MES-1 | 0.939 | 0.833 | 0.882 | 0.659 | 1.07 | 1.14 | 1.07 | 1.01 | 1.02 | 0.658 | 0.689 | 0.576 | 0.32 | 0.257 | 0.326 | 0.303 | 0.3 | 0.291
9 | SW 1573 | 0.726 | 0.847 | 0.788 | 0.776 | 0.505 | 0.862 | 0.456 | 0.479 | 0.404 | 0.445 | 0.457 | 0.488 | 0.308 | 0.411 | 0.418 | 0.421 | 0.347 | 0.344
